Assay results: ChEMBL document CHEMBL1201861, “Genomics of Drug Sensitity in Cancer screening data, Wellcome Trust Sanger Institute”

Key:
[1] = test system: SU-DHL-1; experiment: SANGER: Inhibition of human SU-DHL-1 cell growth in a cell viability assay.; format: functional, cell-based; conditions: Homo sapiens, SU-DHL-1
[2] = test system: MeWo; experiment: cells; format: functional, cell-based, Homo sapiens; conditions: Homo sapiens, MeWo;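 note: growth inhibition of MeWo cells, determined by a cell viability readout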
Description: SANGER: Inhibition of human Mewo cell growth in a cell viability assay.

[3] = test system: MONO-MAC-6; experiment: cells; format: functional, cell-based, Homo sapiens; conditions: Homo sapiens, MONO-MAC-6;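 note: cell viability assay measuring growth inhibition of human MONO-MAC-6 cells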
Description: SANGER: Inhibition of human MONO-MAC-6 cell growth in a cell viability assay.

[4] = test system: NCI-H727; experiment: cells; format: functional, cell-based, Homo sapiens; conditions: Homo sapiens, NCI-H727;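 note: growth inhibition of human NCI-H727 cells, read out with a cell viability assay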
Description: SANGER: Inhibition of human NCI-H727 cell growth in a cell viability assay.

[5] = test system: Raji; experiment: cells; format: functional, cell-based, Homo sapiens; conditions: Homo sapiens, Raji;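 note: cell viability assay measuring inhibition of Raji cell growth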
Description: SANGER: Inhibition of human Raji cell growth in a cell viability assay.

[6] = test system: SK-MEL-30; experiment: cells; format: functional, cell-based, Homo sapiens; conditions: Homo sapiens, SK-MEL-30;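 note: growth inhibition of SK-MEL-30 cells, determined with a cell viability assay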
Description: SANGER: Inhibition of human SK-MEL-30 cell growth in a cell viability assay.

[7] = test system: NCI-H441; experiment: cells; format: functional, cell-based, Homo sapiens; conditions: Homo sapiens, NCI-H441;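 note: growth inhibition of NCI-H441 cells, read out with a cell viability assay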
Description: SANGER: Inhibition of human NCI-H441 cell growth in a cell viability assay.

[8] = test system: KYSE-510; experiment: cells; format: functional, cell-based, Homo sapiens; conditions: Homo sapiens, KYSE-510;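 note: cell viability readout used to measure how strongly growth of the cell line is suppressed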
Description: SANGER: Inhibition of human KYSE-510 cell growth in a cell viability assay.

[9] = test system: HT1197; experiment: cells; format: functional, cell-based, Homo sapiens, HT-1197; conditions: Homo sapiens, HT1197
Description: SANGER: Inhibition of human HT-1197 cell growth in a cell viability assay.

[10] = test system: OPM-2; experiment: cells; format: functional, cell-based, Homo sapiens; conditions: Homo sapiens, OPM-2;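 note: growth of OPM-2 cells measured with a viability assay, IC50 for suppression of proliferation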
Description: SANGER: Inhibition of human OPM-2 cell growth in a cell viability assay.

[11] = test system: KYSE-180; experiment: cells; format: functional, cell-based, Homo sapiens; conditions: Homo sapiens, KYSE-180;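 note: growth inhibition of KYSE-180 cells, read out with a cell viability assay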
Description: SANGER: Inhibition of human KYSE-180 cell growth in a cell viability assay.

[12] = test system: HuCCT-1; experiment: cells; format: functional, cell-based, Homo sapiens, HuCCT1; conditions: Homo sapiens, HuCCT-1;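 note: growth inhibition of HuCCT-1 cells, read out by a cell viability assay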
Description: SANGER: Inhibition of human HuCCT1 cell growth in a cell viability assay.

[13] = test system: G-401; experiment: cells; format: functional, cell-based, Homo sapiens; conditions: Homo sapiens, G-401
Description: SANGER: Inhibition of human G-401 cell growth in a cell viability assay.

[14] = test system: COR-L105; experiment: cells; format: functional, cell-based, Homo sapiens; conditions: Homo sapiens, COR-L105
Description: SANGER: Inhibition of human COR-L105 cell growth in a cell viability assay.

[15] = test system: CaR-1; experiment: cells; format: functional, cell-based, Homo sapiens; conditions: Homo sapiens, CaR-1;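 note: growth inhibition of human CaR-1 cancer cells, read out with a cell viability assay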
Description: SANGER: Inhibition of human CaR-1 cell growth in a cell viability assay.

[16] = test system: MDA-MB-415; experiment: cells; format: functional, cell-based, Homo sapiens; conditions: Homo sapiens, MDA-MB-415
[17] = test system: SCC-4; experiment: cells; format: functional, cell-based, Homo sapiens; conditions: Homo sapiens, SCC-4;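 note: growth inhibition of human SCC-4 cells, read out as cell viability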
Description: SANGER: Inhibition of human SCC-4 cell growth in a cell viability assay.

[18] = test system: T84; experiment: cells; format: functional, cell-based, Homo sapiens; conditions: Homo sapiens, T84;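 note: growth inhibition measured with a cell viability readout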
Description: SANGER: Inhibition of human T84 cell growth in a cell viability assay.

[19] = test system: COR-L279; experiment: SANGER: Inhibition of human COR-L279 cell growth in a cell viability assay.; format: functional, cell-based; conditions: Homo sapiens, COR-L279
[20] = test system: CESS; experiment: SANGER: Inhibition of human CESS cell growth in a cell viability assay.; format: functional, cell-based; conditions: Homo sapiens, CESS
[21] = test system: WSU-NHL; experiment: cells; format: functional, cell-based, Homo sapiens; conditions: Homo sapiens, WSU-NHL;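 note: growth inhibition of human WSU-NHL cells, read out with a cell viability assay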
Description: SANGER: Inhibition of human WSU-NHL cell growth in a cell viability assay.

[22] = test system: U-118-MG; experiment: cells; format: functional, cell-based, Homo sapiens; conditions: Homo sapiens, U-118-MG
Description: SANGER: Inhibition of human U-118-MG cell growth in a cell viability assay.

[23] = test system: RCM-1; experiment: cells; format: functional, cell-based, Homo sapiens; conditions: Homo sapiens, RCM-1;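 note: growth inhibition of the RCM-1 line, determined with a cell viability readout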
Description: SANGER: Inhibition of human RCM-1 cell growth in a cell viability assay.

[24] = test system: NCI-H2405; experiment: cells; format: functional, cell-based, Homo sapiens; conditions: Homo sapiens, NCI-H2405;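 note: growth inhibition of the human cell line, read out with a cell viability assay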
Description: SANGER: Inhibition of human NCI-H2405 cell growth in a cell viability assay.

[25] = test system: SCC-3; experiment: cells; format: functional, cell-based, Homo sapiens; conditions: Homo sapiens, SCC-3;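 note: cell viability assay measuring inhibition of SCC-3 cell growth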
Description: SANGER: Inhibition of human SCC-3 cell growth in a cell viability assay.

[26] = test system: NCI-H1436; experiment: cells; format: functional, cell-based, Homo sapiens; conditions: Homo sapiens, NCI-H1436;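 note: growth suppression of human NCI-H1436 cells, determined with a cell viability readout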
Description: SANGER: Inhibition of human NCI-H1436 cell growth in a cell viability assay.

[27] = test system: GMS-10; experiment: cells; format: functional, cell-based, Homo sapiens; conditions: Homo sapiens, GMS-10;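 note: growth inhibition of GMS-10 cells, read out as cell viability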
Description: SANGER: Inhibition of human GMS-10 cell growth in a cell viability assay.

[28] = test system: UMUC3; experiment: cells; format: functional, cell-based, Homo sapiens; conditions: Homo sapiens, UMUC3;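 note: growth inhibition of human UM-UC-3 cells, read out with a cell viability assay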
Description: SANGER: Inhibition of human UM-UC-3 cell growth in a cell viability assay.

[29] = test system: OE33; experiment: cells; format: functional, cell-based, Homo sapiens; conditions: Homo sapiens, OE33;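 note: growth inhibition of human OE33 cells, measured by a cell viability assay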
Description: SANGER: Inhibition of human OE33 cell growth in a cell viability assay.

[30] = test system: NCI-H2452; experiment: cells; format: functional, cell-based, Homo sapiens; conditions: Homo sapiens, NCI-H2452;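 note: growth inhibition of NCI-H2452 cells, read out with a cell viability assay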
Description: SANGER: Inhibition of human NCI-H2452 cell growth in a cell viability assay.

[31] = test system: KYSE-150 cell line; experiment: cells; format: functional, cell-based, Homo sapiens; conditions: Homo sapiens, KYSE-150;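 note: growth inhibition of human KYSE-150 cells, read out with a cell viability assay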
Description: SANGER: Inhibition of human KYSE-150 cell growth in a cell viability assay.

[32] = test system: NCI-H2030; experiment: cells; format: functional, cell-based, Homo sapiens; conditions: Homo sapiens, NCI-H2030;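 note: growth inhibition of human NCI-H2030 cells, read out by a cell viability assay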
Description: SANGER: Inhibition of human NCI-H2030 cell growth in a cell viability assay.

[33] = test system: HCC1599; experiment: cells; format: functional, cell-based, Homo sapiens; conditions: Homo sapiens, HCC1599;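 note: growth inhibition of HCC1599 cells, read out in a cell viability assay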
Description: SANGER: Inhibition of human HCC1599 cell growth in a cell viability assay.

[34] = test system: M059J; experiment: cells; format: functional, cell-based, Homo sapiens; conditions: Homo sapiens, M059J;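 note: growth inhibition of M059J cells, read out with a cell viability assay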
Description: SANGER: Inhibition of human M059J cell growth in a cell viability assay.

[35] = test system: Ca9-22; experiment: cells; format: functional, cell-based, Homo sapiens; conditions: Homo sapiens, Ca9-22;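 note: growth inhibition of Ca9-22 cells, read out with a cell viability assay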
Description: SANGER: Inhibition of human Ca9-22 cell growth in a cell viability assay.

[36] = test system: RT-112; experiment: cells; format: functional, cell-based, Homo sapiens; conditions: Homo sapiens, RT-112
Description: SANGER: Inhibition of human RT-112 cell growth in a cell viability assay.

[37] = test system: D-542MG; experiment: cells; format: functional, cell-based, Homo sapiens; conditions: Homo sapiens, D-542MG
Description: SANGER: Inhibition of human D-542MG cell growth in a cell viability assay.

[38] = test system: JIYOYE; experiment: cells; format: functional, cell-based, Homo sapiens; conditions: Homo sapiens, JIYOYE
Description: SANGER: Inhibition of human JiyoyeP-2003 cell growth in a cell viability assay.

[39] = test system: RD; experiment: cells; format: functional, cell-based, Homo sapiens; conditions: Homo sapiens, RD
Description: SANGER: Inhibition of human RD cell growth in a cell viability assay.

[40] = test system: AGS; experiment: cells; format: functional, cell-based, Homo sapiens; conditions: Homo sapiens, AGS;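 note: growth inhibition of AGS cells, determined with a cell viability assay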
Description: SANGER: Inhibition of human AGS cell growth in a cell viability assay.

[41] = test system: HT-1376; experiment: cells; format: functional, cell-based, Homo sapiens; conditions: Homo sapiens, HT-1376
Description: SANGER: Inhibition of human HT-1376 cell growth in a cell viability assay.

[42] = test system: H4; experiment: cells; format: functional, cell-based, Homo sapiens; conditions: Homo sapiens, H4
Description: SANGER: Inhibition of human H4 cell growth in a cell viability assay.

[43] = test system: NCI-H1563; experiment: cells; format: functional, cell-based, Homo sapiens; conditions: Homo sapiens, NCI-H1563;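 note: growth inhibition of human NCI-H1563 cells, read out with a cell viability assay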
Description: SANGER: Inhibition of human NCI-H1563 cell growth in a cell viability assay.

[44] = test system: COLO-792; experiment: cells; format: functional, cell-based, Homo sapiens; conditions: Homo sapiens, COLO-792
Description: SANGER: Inhibition of human COLO-792 cell growth in a cell viability assay.

[45] = test system: SW837; experiment: cells; format: functional, cell-based, Homo sapiens; conditions: Homo sapiens, SW837;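 note: growth inhibition of SW837 cells, determined with a cell viability assay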
Description: SANGER: Inhibition of human SW837 cell growth in a cell viability assay.

[46] = test system: NCI-H358; experiment: cells; format: functional, cell-based, Homo sapiens; conditions: Homo sapiens, NCI-H358;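 note: growth inhibition of NCI-H358 human cells, read out with a cell viability assay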
Description: SANGER: Inhibition of human NCI-H358 cell growth in a cell viability assay.

[47] = test system: THP-1; experiment: cells; format: functional, cell-based, Homo sapiens; conditions: Homo sapiens, THP-1;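 note: growth inhibition of THP-1 cells, read out via a cell viability assay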
Description: SANGER: Inhibition of human THP-1 cell growth in a cell viability assay.

SMILES: Oc1ccc2ccccc2c1SSc1c(O)ccc2ccccc12
- IC50 [1]: > 32 µM
- IC50 [2]: > 32 µM
- IC50 [3]: > 32 µM
- IC50 [4]: 19.7 µM
- IC50 [5]: > 32 µM
- IC50 [6]: > 32 µM
- IC50 [7]: > 32 µM
- IC50 [8]: > 32 µM
- IC50 [9]: 10.3 µM
- IC50 [10]: > 32 µM
- IC50 [11]: > 32 µM
- IC50 [12]: 20.1 µM
- IC50 [13]: 7.53 µM
- IC50 [14]: 7.36 µM
- IC50 [15]: > 32 µM
- IC50 [16]: > 32 µM
- IC50 [17]: > 32 µM
- IC50 [18]: 12.2 µM
- IC50 [19]: > 32 µM
- IC50 [20]: 12.4 µM
- IC50 [21]: 5.52 µM
- IC50 [22]: > 32 µM
- IC50 [23]: > 32 µM
- IC50 [24]: 12 µM
- IC50 [25]: > 32 µM
- IC50 [26]: > 32 µM
- IC50 [27]: > 32 µM
- IC50 [28]: > 32 µM
- IC50 [29]: > 32 µM
- IC50 [30]: > 32 µM
- IC50 [31]: > 32 µM
- IC50 [32]: > 32 µM
- IC50 [33]: > 32 µM
- IC50 [34]: > 32 µM
- IC50 [35]: 28.1 µM
- IC50 [36]: 27.3 µM
- IC50 [37]: 27.2 µM
- IC50 [38]: 7.26 µM
- IC50 [39]: > 32 µM
- IC50 [40]: > 32 µM
- IC50 [41]: > 32 µM
- IC50 [42]: > 32 µM
- IC50 [43]: > 32 µM
- IC50 [44]: > 32 µM
- IC50 [45]: > 32 µM
- IC50 [46]: > 32 µM
- IC50 [47]: > 32 µM

SMILES: Cc1cc([N+](=O)[O-])ccc1NS(=O)(=O)c1cc(Cl)ccc1Cl
- IC50 [1]: > 32 µM
- IC50 [2]: 28.6 µM
- IC50 [3]: 6.18 µM
- IC50 [4]: 2.03 µM
- IC50 [5]: 6.44 µM
- IC50 [6]: 5.76 µM
- IC50 [7]: 6.75 µM
- IC50 [8]: 4.84 µM
- IC50 [9]: 11.2 µM
- IC50 [10]: > 32 µM
- IC50 [11]: 3.13 µM
- IC50 [12]: 7.32 µM
- IC50 [13]: 0.861 µM
- IC50 [14]: 6.58 µM
- IC50 [15]: > 32 µM
- IC50 [16]: 4.7 µM
- IC50 [17]: 13.8 µM
- IC50 [18]: 4.69 µM
- IC50 [19]: > 32 µM
- IC50 [20]: > 32 µM
- IC50 [21]: 11.8 µM
- IC50 [22]: > 32 µM
- IC50 [23]: 8.76 µM
- IC50 [24]: 3.96 µM
- IC50 [25]: > 32 µM
- IC50 [26]: > 32 µM
- IC50 [27]: 20.1 µM
- IC50 [28]: 1.67 µM
- IC50 [29]: 9.49 µM
- IC50 [30]: > 32 µM
- IC50 [31]: 5.06 µM
- IC50 [32]: 4.43 µM
- IC50 [33]: 16.7 µM
- IC50 [34]: 5.94 µM
- IC50 [35]: 6 µM
- IC50 [36]: 6.11 µM
- IC50 [37]: 0.277 µM
- IC50 [38]: 6.6 µM
- IC50 [39]: 7.33 µM
- IC50 [40]: 5.37 µM
- IC50 [41]: 3.81 µM
- IC50 [42]: 2.59 µM
- IC50 [43]: 9.47 µM
- IC50 [44]: 2.01 µM
- IC50 [45]: 4 µM
- IC50 [46]: 6.31 µM
- IC50 [47]: 19.6 µM
